Reference: US6470889B1 (B.H.B., L.C., priority 1999, dated 2002)

Test: Empiric porcine aortic contrast enhancement, dynamic CT at fixed mid-abdominal aortic level after i.v. injection
Assay type: in vivo, pig
Protocol: In order to test the mathematical solutions, a porcine study was conducted. All animal care and procedures performed were approved by the Institutional Animal Study Committee. […] Each session was separated by at least two days. Two pigs had all their sessions within a week, while the other two pigs had their first two and last sessions delays 4-5 weeks, which results in an increase in their weight to 35-40 kg in their last session. In each session, the pig was anesthetized, intubated, and underwent scanning for three or four sets of images obtained in random order. During scanning, each pig was ventilated with oxygen and low tidal volume to minimize breathing motion artifact. […] Each set of scans were 45-60 minutes apart to minimize the effect of prior contrast administration. All CT scanning was performed with a Somatom Plus-S scanner (Siemens Medical Systems, […].) using a one-second scanning time and a one-second interscan delay. Three types of injection schemes were tested: uniphasic, biphasic, and multiphasic. Biphasic injections were performed by a prior art power injector which was used in routine clinical CT scanning while uniphasic and multiphasic injections were conducted with a power injector which was invented for achieving the required protocols. This power injector was capable of delivering contrast medium in various uniphasic or multiphasic injection algorithms, as is explained in greater detail below. The multiphasic injection rate is determined by an initial injection rate and an exponential decay coefficient, as shown in FIG. 3. […] Most injections were performed with the initial injection rate of 2 mL/s. […] Three differential exponential decay coefficients (0.007, 0.017, 0.026) were tested. […] These were the three smallest discrete increments allowed in the prototype of the inventive power injector. Decay coefficient higher than 0.03 was not used because it was evident that a further increase in the coefficient would deviate further away from uniform vascular enhancements. A uniphasic injection was determined as being equivalent to a zero exponential decay coefficient where the injection rate remains constant at an initial injection rate throughout the injection duration. […] Approximately half of the total contrast volume was injected in each phase of the biphasic injections. […] Attenuation values of the aorta were measured from post-contrast scans (at the same level as the pre-contrast scans) using a circular region of interest (ROI) at the center of the aorta. Contrast enhancement was calculated as the absolute different in attenuation value between the pre- and post-contrast scans. For the data analysis, the injection duration (ID), the magnitude of peak aortic enhancement (PA), and the uniformity of enhancement (the duration of the enhancement achieved with 90% of the peak: 90% DCE) were evaluated. Means and standard deviations were also computed. The results are now explained.

[1] = 25 kg pig, 50 mL of 282 mgI/mL contrast medium, uniphasic 2 mL/sec
[2] = four pigs, 50 mL, 2 mL/s initial injection rate, decay constant 0.017
[3] = four pigs, 70 mL, 2 mL/s initial injection rate, decay constant 0.017

- time to the peak aortic enhancement (empiric) [1]: 26 s
Compound: CNC(=O)c1c(I)c(NC(C)=O)c(I)c(C(=O)O)c1I.CNC[C@H](O)[C@@H](O)[C@H](O)[C@H](O)CO [contrast medium, iothalmate meglumine]
- magnitude of the peak aortic enhancement (empiric) [1]: 250 HU
- pattern of aortic enhancement, multiphasic vs uniphasic injection (50 mL and 70 mL, 2 mL/s, decay constant 0.017): more prolonged and uniform vascular enhancement than uniphasic injections
- pattern of aortic enhancement, biphasic injection (70 mL, 2 mL/s for 17 sec then 1.0 mL/s for 36 sec): two enhancement peaks with a valley in between
- increase of 90% DCE (duration of enhancement achieved with 90% of the peak), multiphasic vs uniphasic injection, mean [2]: 81%
- reduction of peak aortic enhancement (PA), multiphasic vs uniphasic injection, mean [2]: 19%
- decrease of peak aortic enhancement (PA), multiphasic vs uniphasic injection [3]: 18%
- increase of 90% DCE, multiphasic vs uniphasic injection [3]: 94%
- pattern of aortic enhancement, multiphasic exponential injection, decay constant 0.017 (two pigs (25 kg, 40 kg), compared with decay constants 0.007 and 0.026): more uniform than with other injection protocols
